Experimental data: the NIST ThermoML archive (doi:10.1021/acs.jced.8b00132)
“And” between values parts separate entries of the source, which are not always exact repeats. Identical values can stand only once.

Settings: transient hot wire

O=C(C(F)(F)C(F)(F)F)C(F)(C(F)(F)F)C(F)(F)F [dodecafluoro-2-methylpentan-3-one]
Settings	thermal conductivity
302.17 K, 68802 kPa, Liquid	0.07801 W/m/K
302.17 K, 68805 kPa, Liquid	0.07819 W/m/K
302.18 K, 185 kPa, Liquid	0.05684 W/m/K
302.19 K, 184 kPa, Liquid	0.05683 W/m/K
302.19 K, 38646 kPa, Liquid	0.07042 W/m/K
302.19 K, 38653 kPa, Liquid	0.07047 W/m/K
302.2 K, 4505 kPa, Liquid	0.05895 W/m/K
302.2 K, 4509 kPa, Liquid	0.05896 W/m/K
302.2 K, 22376 kPa, Liquid	0.06575 W/m/K
302.2 K, 22378 kPa, Liquid	0.06574 W/m/K
302.21 K, 181 kPa, Liquid	0.05683 W/m/K and 0.05685 W/m/K
302.21 K, 9730 kPa, Liquid	0.06078 W/m/K
302.21 K, 9731 kPa, Liquid	0.06057 W/m/K
302.22 K, 29975 kPa, Liquid	0.06769 W/m/K and 0.06766 W/m/K
302.23 K, 38 kPa, Gas	0.01171 W/m/K
302.24 K, 34 kPa, Gas	0.01182 W/m/K
302.24 K, 36 kPa, Gas	0.01189 W/m/K
302.25 K, 34 kPa, Gas	0.01189 W/m/K
302.26 K, 4429 kPa, Liquid	0.05855 W/m/K
302.26 K, 4432 kPa, Liquid	0.05857 W/m/K
302.26 K, 15648 kPa, Liquid	0.06339 W/m/K
302.26 K, 22430 kPa, Liquid	0.06528 W/m/K
302.27 K, 15647 kPa, Liquid	0.06339 W/m/K
302.27 K, 22437 kPa, Liquid	0.06518 W/m/K
302.29 K, 121 kPa, Liquid	0.05692 W/m/K
302.3 K, 121 kPa, Liquid	0.057 W/m/K
302.31 K, 92 kPa, Liquid	0.05649 W/m/K
302.31 K, 97 kPa, Liquid	0.05641 W/m/K
302.35 K, 9934 kPa, Liquid	0.0612 W/m/K
302.35 K, 9940 kPa, Liquid	0.06118 W/m/K
302.46 K, 4504 kPa, Liquid	0.05889 W/m/K
302.47 K, 4505 kPa, Liquid	0.05889 W/m/K
302.48 K, 184 kPa, Liquid	0.05681 W/m/K
302.49 K, 184 kPa, Liquid	0.05679 W/m/K
302.5 K, 181 kPa, Liquid	0.05679 W/m/K and 0.05678 W/m/K
302.52 K, 15868 kPa, Liquid	0.06291 W/m/K
302.53 K, 15872 kPa, Liquid	0.06281 W/m/K
302.54 K, 68548 kPa, Liquid	0.07804 W/m/K
302.54 K, 68549 kPa, Liquid	0.07799 W/m/K
302.57 K, 121 kPa, Liquid	0.05687 W/m/K and 0.05695 W/m/K
302.58 K, 58446 kPa, Liquid	0.0756 W/m/K
302.59 K, 58445 kPa, Liquid	0.07563 W/m/K
302.6 K, 34 kPa, Gas	0.01198 W/m/K
302.61 K, 36 kPa, Gas	0.01183 W/m/K
302.61 K, 38 kPa, Gas	0.01193 W/m/K
302.61 K, 68790 kPa, Liquid	0.07804 W/m/K
302.61 K, 68801 kPa, Liquid	0.07795 W/m/K
302.63 K, 48154 kPa, Liquid	0.07294 W/m/K
302.63 K, 48162 kPa, Liquid	0.07285 W/m/K
302.65 K, 15984 kPa, Liquid	0.06295 W/m/K
302.65 K, 15986 kPa, Liquid	0.06304 W/m/K
302.68 K, 38648 kPa, Liquid	0.07035 W/m/K
302.69 K, 38638 kPa, Liquid	0.07035 W/m/K
302.72 K, 9724 kPa, Liquid	0.06082 W/m/K
302.72 K, 9726 kPa, Liquid	0.06095 W/m/K
302.73 K, 29973 kPa, Liquid	0.06771 W/m/K
302.74 K, 29982 kPa, Liquid	0.06772 W/m/K
302.78 K, 4430 kPa, Liquid	0.0586 W/m/K
302.79 K, 4428 kPa, Liquid	0.05856 W/m/K
302.79 K, 22448 kPa, Liquid	0.06525 W/m/K
302.8 K, 22443 kPa, Liquid	0.06527 W/m/K
302.85 K, 95 kPa, Liquid	0.05658 W/m/K
302.86 K, 96 kPa, Liquid	0.05645 W/m/K
303.01 K, 36 kPa, Gas	0.01199 W/m/K
303.02 K, 38 kPa, Gas	0.01194 W/m/K
303.03 K, 35 kPa, Gas	0.01196 W/m/K
303.04 K, 68537 kPa, Liquid	0.07796 W/m/K
303.04 K, 68564 kPa, Liquid	0.07806 W/m/K
303.07 K, 15868 kPa, Liquid	0.06292 W/m/K
303.07 K, 15869 kPa, Liquid	0.06282 W/m/K
303.1 K, 58422 kPa, Liquid	0.07541 W/m/K
303.1 K, 58439 kPa, Liquid	0.07546 W/m/K
303.11 K, 68765 kPa, Liquid	0.07805 W/m/K
303.11 K, 68772 kPa, Liquid	0.07794 W/m/K
303.16 K, 48157 kPa, Liquid	0.07292 W/m/K
303.17 K, 48152 kPa, Liquid	0.07285 W/m/K
303.2 K, 15974 kPa, Liquid	0.06276 W/m/K
303.2 K, 15979 kPa, Liquid	0.06281 W/m/K
303.22 K, 38643 kPa, Liquid	0.07047 W/m/K
303.23 K, 38644 kPa, Liquid	0.0705 W/m/K
303.29 K, 9716 kPa, Liquid	0.06072 W/m/K
303.29 K, 9741 kPa, Liquid	0.06069 W/m/K
303.3 K, 29978 kPa, Liquid	0.06778 W/m/K
303.3 K, 29993 kPa, Liquid	0.06773 W/m/K
